Data set [1] concerns TNF-α. The data set is described as follows: ELISA of TNF-α production in LPS-stimulated THP-1 cells. Format: cell-based, human. To be noted: for Effect on TNF-α level: 10 µM, compared to LPS (+)-stimulated group, THP-1 cells; for IC50: Homo sapiens, THP-1, 18 h, LPS-stimulated (10 ng/mL) THP-1 cells, 1, 5, 10, 20 µM, 18 h, read-out: TNF-α IC50; for TNF-α SI (selectivity index, CC50/IC50): THP-1 CC50 / TNF-α IC50.

The test system of data set [2] is IL-1β. Briefly: ELISA of IL-1β production in LPS-stimulated THP-1 cells. Format: cell-based, human. The following applies: 10 µM, compared to LPS (+)-stimulated group. The protocol:
The logarithmic growth phase of THP-1 cells was achieved by seeding in 96-well plates at a density of 5 × 10^4 cells/well and differentiated for 24 h in the presence of PMA (0.5 μM solution in medium). After 24 h of incubation, the culture medium was removed from the 96-well plate and the cells were washed with PBS. Fresh RPMI-1640 medium supplemented with 0.1% FBS and 1% Penicillin–Streptomycin was added to each well and incubated at 37 °C overnight. The cells were pretreated with 17 limonoids at the corresponding concentration for 1 h, followed by the addition of LPS (10 ng/mL) and then incubation at 37 °C for 18 h. Finally, 50 μL of each culture supernatant solution was taken to determine the concentrations of IL-6, MCP-1, and IL-1β using the corresponding commercially available human ELISA kits following the manufacturer’s instructions. The analyte concentration in the supernatant was measured in pg/mL, and the inhibition level was expressed as a fold change compared to the LPS (−) control group. To determine the IC50 value, the dose-response data were normalized to the LPS-stimulated-only group, and the percentage of inhibition was calculated using the following formula: % Inhibition=(Absorbance of LPS+ control−Absorbance of compound treatment with LPS)/(Absorbance of LPS+ control−Absorbance of LPS− control)×100
Furthermore, the % inhibition data were interpolated into linear equations to determine the IC50 values.

Data set [3] can be described thus: in vitro. The following applies: mouse. Format: cell-based.
The test system of data set [4] is phosphorylated-p38 MAPK. The data set is described as follows: Western blotting of phosphorylated-p38 MAPK in LPS-stimulated THP-1 cells. To be noted: 10 µM, LPS 10 ng/mL, 18 h, compared to LPS (+) group. It counts as cell-based, human. The protocol: THP-1 cells were seeded at a density of 1 × 10^6 cells/well in 24-well plates. The cells were then pretreated with a concentration of 10 µM of compounds 3, 5, 9, or 15 for 1 h. Subsequently, LPS (10 ng/mL) was added to the cells, which were incubated for 18 h. The protein concentrations were determined using a bicinchoninic acid (BCA) assay kit.
For Western blot analysis, proteins were separated by SDS-PAGE and transferred onto a polyvinylidene fluoride (PVDF) membrane. The membranes were blocked with 2.5% BSA in Tris-buffered saline-Tween (TBST) for 1 h at room temperature. After three washes with TBST, the membranes were incubated with a diluted primary antibody solution (anti-phosphorylated-p38 MAPK or anti-p38 MAPK) at a 1:1000 dilution for 1 h at room temperature. After three washes with TBS-T, the membranes were incubated with a secondary antibody conjugated to horseradish peroxidase (HRP; 1:4000 dilution) for 30 min at room temperature and subsequently detected by chemiluminescence. Finally, the bands were visualized and quantified using an ImageQuant 800 GxP system (Cytiva, MA, USA). The results were expressed as ratios relative to the reference protein β-actin.

The test system of data set [5] is IL-6. Briefly: ELISA of IL-6 production in LPS-stimulated THP-1 cells. Format: cell-based, human. To be noted: for Effect on IL-6 level: 10 µM, compared to LPS (+)-stimulated group, THP-1 cells; for IC50: Homo sapiens, THP-1, 18 h, LPS-stimulated (10 ng/mL) THP-1 cells, 1, 5, 10, 20 µM, 18 h.
The test system of data set [6] is TLR4-dependent NF-kB activation in HEK-Blue hTLR4 cells. Briefly: SEAP reporter gene assay, antagonist effect on LPS-stimulated TLR4-dependent NF-κB activation. The following applies: 20 µM, LPS 10 ng/mL, 18 h, vs. LPS stimulated-only group. It counts as cell-based, human. The protocol: The SEAP Reporter Gene Assay was conducted as previously described. HEK-Blue^TM hTLR4 cells (2 × 10^4 cells/well) were seeded in 96-well plates and were serum-starved for 24 h at 37 °C in a 5% carbon dioxide atmosphere. After incubation, the culture medium was aspirated, and the cells were washed with saline. High-glucose D-MEM supplemented with 0.1% FBS and 1% penicillin-streptomycin was added and treated with or without the 17 limonoids at a concentration of 20 µM for 1 h, followed by LPS addition at a concentration of 10 ng/mL for the LPS-stimulated group. After incubation at 37 °C for 18 h, the supernatants were collected and PNPP in PBS solution (0.8 mM, 100 μL) was added, followed by 4 h of shading at 25 °C. The optical density (OD) of the samples was measured at 405 nm using a microplate reader (BioTek Cytation 5 Cell Imaging Multimode Reader, Agilent Technologies, Santa Clara, CA, USA).

Structures are written as SMILES.

In the case of `CC(=O)O[C@H]1[C@@H](O)[C@@]2(C)C3=CC[C@@H](c4ccoc4)[C@]3(C)CC[C@@H]2[C@@]2(C)C=CC(=O)C(C)(C)[C@H]12` [Compound 3, 6α-O-acetyl-7-deacetylnimocinol], in data set [1], the “Effect on TNF-α level” value is “significantly reduced”; the IC50 was 9.18 µM; the “TNF-α SI (selectivity index, CC50/IC50)” value is reported as 2.21. The “Effect on IL-1β level” value in data set [2] is on record as “significantly reduced”. Also, in data set [3], the viability at 5 µM worked out at 90.3 ± 5.24%, the viability at 10 µM amounted to 91.4 ± 8.26% and the viability at 20 µM is 70.2 ± 2.29%. In data set [4], the “Effect on p-p38 MAPK levels” value is listed as “significantly suppressed”. Also, in data set [5], the “Effect on IL-6 level” value is given as “significantly reduced” and the IC50 is 3.06 µM. In data set [5] (THP-1 CC50 / IL-6 IC50), the “IL-6 SI (selectivity index, CC50/IC50)” value was found to be 6.63. The “Inhibition of SEAP release (NF-κB activity inhibition)” value in data set [6] is on record as “significantly inhibited SEAP release”.

Turning to `CC(=O)O[C@H]1[C@@H](OC(C)=O)[C@@]2(C)C3=CC[C@@H](c4ccoc4)[C@]3(C)CC[C@@H]2[C@@]2(C)C=CC(=O)C(C)(C)[C@H]12` [Compound 5, dysobinin], in data set [1], the “Effect on TNF-α level” value is “significantly reduced”; the IC50 was 5.76 µM; the “TNF-α SI (selectivity index, CC50/IC50)” value is listed as 2.53. Moreover, the “Effect on IL-1β level” value in data set [2] is “significantly reduced”. In data set [3], this molecule came in with a viability at 5 µM of 83.6 ± 8.91%, a viability at 10 µM of 84.29 ± 0.28% and a viability at 20 µM of 3.19 ± 1.24%. The “Effect on p-p38 MAPK levels” value in data set [4] was “significantly suppressed”. In data set [5], the “Effect on IL-6 level” value is reported as “significantly reduced” and the half-inhibitory concentration (IC50) is 1.64 ± 0.97 µM. Also, the “Inhibition of SEAP release (NF-κB activity inhibition)” value in data set [6] is reported as “significantly inhibited SEAP release”.

The values above are taken from PMC10814725, “In Vitro Anti-Inflammatory Study of Limonoids Isolated from Chisocheton Plants” (Current Issues in Molecular Biology, 2024).
